tested on: HEK293 cells; test: Preliminary screening as mRNA vectors, EGFP mRNA transfection of HEK293 cells; assay type: cell-based; details: EGFP mRNA 50 ng per well, 96-well plates; percentage of GFP fluorescent cells relative to total number of cells (Hoechst)
How it was run: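 Each well of HEK293 cells received 50 ng of EGFP mRNA. Efficiency was expressed as percent GFP-expressing cells over Hoechst-defined total cell number.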

Q: How did the “Absolute mRNA transfection efficiency in HEK293 cells” value (“Absolute mRNA transfection efficiency” below) turn out when CCCCCCCCCCCCCCCCNc1nc(NCCN(C)C)nc(SCCCCCCCCCCCCCC)n1 [Compound D1S14N16] was run?
A: 1.8%

Q: With CCCCCCCCCCCCCCSc1nc(NCCCCCCCCCCCCC)nc(NCCN2CCCCC2)n1 [Compound D4S14N13] as the compound, how does the “Absolute mRNA transfection efficiency” value read?
A: 14.5%

Q: For CCCCCCCCCCCCCCCCSc1nc(NCCCCCCCCCCC)nc(NCC2CCN(C)CC2)n1 [Compound D10S16N11], which “Absolute mRNA transfection efficiency” value is on record?
A: 37.8%

Q: How did the “Absolute mRNA transfection efficiency” value turn out when CCCCCCCCCCCCCCCSc1nc(NCCCCCCCC)nc(NCCN2CCN(C)CC2)n1 [Compound D5S15N8] was run?
A: 94.7%

Q: CCCCCCCCCCCCCCCCSc1nc(NCCCN2CCOCC2)nc(N(CCCCCCCCCCCC)CCCCCCCCCCCC)n1 [D8S16^2N12] was tested. Which “Absolute mRNA transfection efficiency” value did it give?
A: 0.0%

Q: Which “Absolute mRNA transfection efficiency” value does the source give for CCCCCCCCCCCCCCCCNc1nc(NCCN2CCCC2)nc(SCCCCCCCCCCCCCCC)n1 [Compound D3S15N16] here?
A: 7.6%

Q: For CCCCCCCCCCCCCCCCSc1nc(NCCCCCCCCCCC)nc(NCCN2CCN(C)CC2)n1 [Compound D5S16N11], which “Absolute mRNA transfection efficiency” value is on record?
A: 45.0%

Q: How did the “Absolute mRNA transfection efficiency” value turn out when CCCCCCCCCCCCCCCSc1nc(NCCCCCCCCCCCC)nc(NCCCN(C)C)n1 [Compound D6S15N12] was run?
A: 9.6%

Q: CCCCCCCCCCSc1nc(NCCCCCC)nc(NCCN2CCN(C)CC2)n1 [Compound D5S10N6] was tested. Which “Absolute mRNA transfection efficiency” value did it give?
A: 1.1%

Q: For CCCCCCCCCCCCNc1nc(NCCN2CCCC2)nc(SCCCCCCCCCCC)n1 [Compound D3S11N12], which “Absolute mRNA transfection efficiency” value is on record?
A: 40.5%

Q: For CCCCCCCCCCCCCCCNc1nc(NCCCN(C)C)nc(SCCCCCCC)n1 [Compound D6S7N15], which “Absolute mRNA transfection efficiency” value is on record?
A: 37.9%

Q: For CCCCCCCCCCCCCCCCCCSc1nc(NCCCCCCCC)nc(NCCCN2CCOCC2)n1 [Compound D8S18N8], which “Absolute mRNA transfection efficiency” value is on record?
A: 0.5%

Q: Which “Absolute mRNA transfection efficiency” value does the source give for CCCCCCCCCCCCCCCSc1nc(NCCCCCCCCCCCC)nc(NCCN(CC)CC)n1 [Compound D7S15N12] here?
A: 4.7%

Q: With CCCCCCCCCCCCNc1nc(NCCCN2CCN(C)CC2)nc(SCCCCCCCC)n1 [Compound D9S8N12] as the compound, how does the “Absolute mRNA transfection efficiency” value read?
A: 57.6%

Q: For CCCCCCCCCCCCCCCSc1nc(NCCCCCC)nc(NCCCN(C)C)n1 [Compound D6S15N6], which “Absolute mRNA transfection efficiency” value is on record?
A: 37.4%

Q: With CCCCCCCCCCCCSc1nc(NCCCCCCCCCCC)nc(NCCN(CC)CC)n1 [Compound D7S12N11] as the compound, how does the “Absolute mRNA transfection efficiency” value read?
A: 4.4%

Q: For CCCCCCCCSc1nc(NCCCN(C)C)nc(SCCCCCCC)n1 [Compound D6S7S8], which “Absolute mRNA transfection efficiency” value is on record?
A: 6.3%

Q: CCCCCCCCCCCCCCCNc1nc(NCCN2CCOCC2)nc(SCCCCCCCCCC)n1 [Compound D2S10N15] was tested. Which “Absolute mRNA transfection efficiency” value did it give?
A: 1.3%

Q: CCCCCCCCCCCCCCCNc1nc(NCCN(CC)CC)nc(SCCCCCCCCCC)n1 [Compound D7S10N15] was tested. Which “Absolute mRNA transfection efficiency” value did it give?
A: 2.0%

Q: CCCCCCCCNc1nc(NCCN2CCCCC2)nc(SCCCCCCCC)n1 [Compound D4S8N8] was tested. Which “Absolute mRNA transfection efficiency” value did it give?
A: 0.6%

Q: How did the “Absolute mRNA transfection efficiency” value turn out when CCCCCCCCCCCCCCCCSc1nc(NCCCCCCCC)nc(NCCN2CCN(C)CC2)n1 [Compound D5S16N8] was run?
A: 72.2%

Q: With CCCCCCCCCCCCCCCCSc1nc(NCCCCCC)nc(NCCN2CCOCC2)n1 [Compound D2S16N6] as the compound, how does the “Absolute mRNA transfection efficiency” value read?
A: 23.6%

Q: For CCCCCCCCCCCCCCSc1nc(NCCN2CCCCC2)nc(N(CCCCCCCCCCCC)CCCCCCCCCCCC)n1 [D4S14^2N12], which “Absolute mRNA transfection efficiency” value is on record?
A: 0.2%

Q: CCCCCCCCCCCCCCSc1nc(NCCCCCCCC)nc(NCCN2CCCC2)n1 [Compound D3S14N8] was tested. Which “Absolute mRNA transfection efficiency” value did it give?
A: 55.2%

Q: Which “Absolute mRNA transfection efficiency” value does the source give for CCCCCCCCCCCCSc1nc(NCCCCCC)nc(NCCN2CCN(C)CC2)n1 [Compound D5S12N6] here?
A: 0.3%

Q: Which “Absolute mRNA transfection efficiency” value does the source give for CCCCCCCCCCCCCCSc1nc(NCCCCCCCCCCCCC)nc(NCCCN(C)C)n1 [Compound D6S14N13] here?
A: 5.2%

Q: CCCCCCCCCSc1nc(NCCCCCCC)nc(NCCCN2CCN(C)CC2)n1 [Compound D9S9N7] was tested. Which “Absolute mRNA transfection efficiency” value did it give?
A: 2.8%

Q: CCCCCCCCCCCCSc1nc(NCCN2CCN(C)CC2)nc(N(CCCCCCCCCCCC)CCCCCCCCCCCC)n1 [D5S12^2N12] was tested. Which “Absolute mRNA transfection efficiency” value did it give?
A: 1.6%

Q: With CCCCCCCCCCCCCCCCCCSc1nc(NCCN2CCCC2)nc(SCCCCCC)n1 [Compound D3S6S18] as the compound, how does the “Absolute mRNA transfection efficiency” value read?
A: 36.8%

Q: How did the “Absolute mRNA transfection efficiency” value turn out when CCCCCCCCCCCCCCCCCCSc1nc(NCCCCCCCCC)nc(NCCN2CCCCC2)n1 [Compound D4S18N9] was run?
A: 0.2%

Q: Which “Absolute mRNA transfection efficiency” value does the source give for CCCCCCCCCCSc1nc(NCCCN2CCN(C)CC2)nc(SCCCCCCCC)n1 [Compound D9S8S10] here?
A: 79.4%

Q: With CCCCCCCCCCCCCCCCCCNc1nc(NCC2CCN(C)CC2)nc(SCCCCCC)n1 [Compound D10S6N18] as the compound, how does the “Absolute mRNA transfection efficiency” value read?
A: 41.4%

Q: CCCCCCCCCCCCCNc1nc(NCCCN(C)C)nc(SCCCCCCCCC)n1 [Compound D6S9N13] was tested. Which “Absolute mRNA transfection efficiency” value did it give?
A: 70.9%

Q: For CCCCCCCCCCCCCCCNc1nc(NCCN(C)C)nc(SCCCCCCCCCCCC)n1 [Compound D1S12N15], which “Absolute mRNA transfection efficiency” value is on record?
A: 0.5%

Q: For CCCCCCCCCSc1nc(NCCCCCCCC)nc(NCCN2CCOCC2)n1 [Compound D2S9N8], which “Absolute mRNA transfection efficiency” value is on record?
A: 22.6%

Q: For CCCCCCCCCCCCCCCCCCSc1nc(NCCN2CCOCC2)nc(SCCCCCCC)n1 [Compound D2S7S18], which “Absolute mRNA transfection efficiency” value is on record?
A: 5.1%

Q: With CCCCCCCCCSc1nc(NCCN2CCCCC2)nc(SCCCCCCC)n1 [Compound D4S7S9] as the compound, how does the “Absolute mRNA transfection efficiency” value read?
A: 3.7%

Q: How did the “Absolute mRNA transfection efficiency” value turn out when CCCCCCCCCCCNc1nc(NCCN2CCN(C)CC2)nc(SCCCCCC)n1 [Compound D5S6N11] was run?
A: 5.3%

Q: How did the “Absolute mRNA transfection efficiency” value turn out when CCCCCCCCCCCCCCCCCCSc1nc(NCCCCCCCCCCC)nc(NCCN2CCOCC2)n1 [Compound D2S18N11] was run?
A: 0.5%

Q: CCCCCCCCCCCCN(CCCCCCCCCCCC)c1nc(NCCCN2CCN(C)CC2)nc(SCCCCCCCC)n1 [D9S8^2N12] was tested. Which “Absolute mRNA transfection efficiency” value did it give?
A: 0.6%

Q: Which “Absolute mRNA transfection efficiency” value does the source give for CCCCCCCCCCCCSc1nc(NCCCCCCCCC)nc(NCCCN2CCOCC2)n1 [Compound D8S12N9] here?
A: 2.3%

Q: With CCCCCCCCCCCCCCCNc1nc(NCCN2CCCC2)nc(SCCCCCC)n1 [Compound D3S6N15] as the compound, how does the “Absolute mRNA transfection efficiency” value read?
A: 14.4%

Q: CCCCCCCCCCCCCCCNc1nc(NCCCN(C)C)nc(SCCCCCCCCCCC)n1 [Compound D6S11N15] was tested. Which “Absolute mRNA transfection efficiency” value did it give?
A: 13.1%

Q: With CCCCCCCCCCCCCCCNc1nc(NCCN2CCCCC2)nc(SCCCCCCCCCCCCCC)n1 [Compound D4S14N15] as the compound, how does the “Absolute mRNA transfection efficiency” value read?
A: 1.7%

Q: For CCCCCCCSc1nc(NCCN2CCCC2)nc(SCCCCCC)n1 [Compound D3S6S7], which “Absolute mRNA transfection efficiency” value is on record?
A: 1.3%

Q: How did the “Absolute mRNA transfection efficiency” value turn out when CCCCCCCCCCCCCCSc1nc(NCCCCCCCCCCC)nc(NCCN(C)C)n1 [Compound D1S14N11] was run?
A: 14.3%

Q: Which “Absolute mRNA transfection efficiency” value does the source give for CCCCCCCCSc1nc(NCCN(CC)CC)nc(SCCCCCCCC)n1 [Compound D7S8S8] here?
A: 25.3%

Q: How did the “Absolute mRNA transfection efficiency” value turn out when CCCCCCCCCCCCCCCCCCSc1nc(NCCCCCCCCC)nc(NCCN(CC)CC)n1 [Compound D7S18N9] was run?
A: 1.9%

Q: CCCCCCCCCCCNc1nc(NCC2CCN(C)CC2)nc(SCCCCCCCCC)n1 [Compound D10S9N11] was tested. Which “Absolute mRNA transfection efficiency” value did it give?
A: 66.0%

Q: How did the “Absolute mRNA transfection efficiency” value turn out when CCCCCCCCCCCCCCCSc1nc(NCCN2CCN(C)CC2)nc(SCCCCCC)n1 [Compound D5S6S15] was run?
A: 29.7%

Q: CCCCCCCCCCSc1nc(NCCCCCCCC)nc(NCCN2CCN(C)CC2)n1 [Compound D5S10N8] was tested. Which “Absolute mRNA transfection efficiency” value did it give?
A: 8.6%

Q: Which “Absolute mRNA transfection efficiency” value does the source give for CCCCCCCCCCCNc1nc(NCCN2CCCC2)nc(SCCCCCCCCCC)n1 [Compound D3S10N11] here?
A: 17.1%

Q: For CCCCCCCCCCCCN(CCCCCCCCCCCC)c1nc(NCC2CCN(C)CC2)nc(SCCCCCCCCC)n1 [D10S9^2N12], which “Absolute mRNA transfection efficiency” value is on record?
A: 7.7%

Q: CCCCCCCCCCCCCNc1nc(NCCN2CCCC2)nc(SCCCCCCCCCCCC)n1 [Compound D3S12N13] was tested. Which “Absolute mRNA transfection efficiency” value did it give?
A: 0.3%

Q: How did the “Absolute mRNA transfection efficiency” value turn out when CCCCCCCCCCSc1nc(NCCN2CCCC2)nc(SCCCCCCC)n1 [Compound D3S7S10] was run?
A: 3.3%

Q: With CCCCCCCCCCCCCCCCNc1nc(NCCCN2CCN(C)CC2)nc(SCCCCCCCCCC)n1 [Compound D9S10N16] as the compound, how does the “Absolute mRNA transfection efficiency” value read?
A: 13.6%

Q: How did the “Absolute mRNA transfection efficiency” value turn out when CCCCCCCCCSc1nc(NCCN2CCOCC2)nc(SCCCCCCCC)n1 [Compound D2S8S9] was run?
A: 84.9%

Q: How did the “Absolute mRNA transfection efficiency” value turn out when CCCCCCCCCCCCCCCCNc1nc(NCCN(CC)CC)nc(SCCCCCCC)n1 [Compound D7S7N16] was run?
A: 12.8%

Q: With CCCCCCCCCCCCCCCCCCSc1nc(NCCN2CCN(C)CC2)nc(N(CCCCCCCCCCCC)CCCCCCCCCCCC)n1 [D5S18^2N12] as the compound, how does the “Absolute mRNA transfection efficiency” value read?
A: 0.0%

Q: CCCCCCCCCCSc1nc(NCCCCCCC)nc(NCCCN2CCOCC2)n1 [Compound D8S10N7] was tested. Which “Absolute mRNA transfection efficiency” value did it give?
A: 0.6%

Q: With CCCCCCCCCCCNc1nc(NCCCN2CCOCC2)nc(SCCCCCCC)n1 [Compound D8S7N11] as the compound, how does the “Absolute mRNA transfection efficiency” value read?
A: 20.1%

Q: With CCCCCCCCCCCCSc1nc(NCCCCCCC)nc(NCCCN2CCOCC2)n1 [Compound D8S12N7] as the compound, how does the “Absolute mRNA transfection efficiency” value read?
A: 1.5%

Q: How did the “Absolute mRNA transfection efficiency” value turn out when CCCCCCCSc1nc(NCC2CCN(C)CC2)nc(SCCCCCCC)n1 [Compound D10S7S7] was run?
A: 19.3%

Q: CCCCCCCCCCCCCCCCNc1nc(NCCN2CCOCC2)nc(SCCCCCCCCCCC)n1 [Compound D2S11N16] was tested. Which “Absolute mRNA transfection efficiency” value did it give?
A: 1.1%

Q: CCCCCCCCCCCCCCCCCCNc1nc(NCCCN2CCN(C)CC2)nc(SCCCCCCC)n1 [Compound D9S7N18] was tested. Which “Absolute mRNA transfection efficiency” value did it give?
A: 37.1%

Q: CCCCCCCCCCCCCCCNc1nc(NCCN2CCCC2)nc(SCCCCCCC)n1 [Compound D3S7N15] was tested. Which “Absolute mRNA transfection efficiency” value did it give?
A: 33.7%

Reference: patent US20230123334A1, “AMINO LIPID COMPOUND, PREPARATION METHOD THEREFOR, AND APPLICATION THEREOF” (SHENZHEN SHENXIN BIOTECHNOLOGY CO., LTD., priority 2020, published 2023)
